From patent US9006188B2, “Co-crystals of dapagliflozin” (Mapi Pharma Ltd., priority 2013, dated 2015)
Read-outs that look alike come from different tables or passages of the source.

Assays:
[1] = XRPD after DVS at 25° C., 0-95% relative humidity
Experimental: (§1) The preparation of lactose co-crystal and asparagine co-crystal were scaled up and repeated (about 400 mg of dapagliflozin free form was dissolved in 26 ml of IPA) and XRPD, PLM, TGA, DSC, NMR and DVS analyses were conducted for physicochemical properties evaluation. Before physicochemical properties evaluation, the solids precipitated out were isolated and dried off at 40° C. for 4 hours in vacuum drier. After hygroscopicity test, the sample was retested by XRPD to determine if any form transformation during the DVS test.
(§2) The sorption/desorption profiles of dapagliflozin Form I were tested at 25° C. under 0-95% relative humidity. […] This sample was tested by XRPD.

[2] = −20° C., tightly closed, 1.5 month
Experimental: Dapagliflozin was stored at −20° C., tightly closed. After being stored for 1.5 month, it was characterized by XRPD, MDSC and TGA to check if it is stable.

[3] = Hygroscopicity by Dynamic Vapor Sorption (DVS), sorption/desorption profile; type: physicochemical; conditions: for appearance of sample after DVS testing: after DVS at 25° C., 0-95% relative humidity
Experimental: as §1, §2

[4] = DVS 25° C., cycle 1, target 0.0 % P/Po
[5] = DVS 25° C., cycle 1, target 5.0 % P/Po
[6] = DVS 25° C., cycle 1, target 10.0 % P/Po
[7] = DVS 25° C., cycle 1, target 15.0 % P/Po
[8] = DVS 25° C., cycle 1, target 20.0 % P/Po
[9] = DVS 25° C., cycle 1, target 25.0 % P/Po
[10] = DVS 25° C., cycle 1, target 30.0 % P/Po
[11] = DVS 25° C., cycle 1, target 35.0 % P/Po
[12] = DVS 25° C., cycle 1, target 40.0 % P/Po
[13] = DVS 25° C., cycle 1, target 45.0 % P/Po
[14] = DVS 25° C., cycle 1, target 50.0 % P/Po
[15] = DVS 25° C., cycle 1, target 55.0 % P/Po
[16] = DVS 25° C., cycle 1, target 60.0 % P/Po
[17] = DVS 25° C., cycle 1, target 65.0 % P/Po
[18] = DVS 25° C., cycle 1, target 70.0 % P/Po
[19] = DVS 25° C., cycle 1, target 75.0 % P/Po
[20] = DVS 25° C., cycle 1, target 80.0 % P/Po
[21] = DVS 25° C., cycle 1, target 85.0 % P/Po
[22] = DVS 25° C., cycle 1, target 90.0 % P/Po
[23] = DVS 25° C., cycle 1, target 95.0 % P/Po

stability on storage (form transformation by XRPD, MDSC, TGA) [2]: stable | stability on storage (form transformation by XRPD, MDSC, TGA) ([2]; listed as Dapagliflozin): no form transformation was detected | weight gain from 0 to 95% RH ([3]; DVS 25° C., 0 to 95% RH): 23.33% | Change In Mass (%) - ref, Desorption [3, 4]: 10.18% | Change In Mass (%) - ref, Sorption [3, 4]: 0.00% | Change In Mass (%) - ref, Desorption [3, 5]: 10.26% | Change In Mass (%) - ref, Hysteresis [3, 5]: 10.18% | Change In Mass (%) - ref, Sorption [3, 5]: 0.09% | Change In Mass (%) - ref, Desorption [3, 6]: 10.34% | Change In Mass (%) - ref, Hysteresis [3, 6]: 10.20% | Change In Mass (%) - ref, Sorption [3, 6]: 0.14% | Change In Mass (%) - ref, Desorption [3, 7]: 10.42% | Change In Mass (%) - ref, Hysteresis [3, 7]: 10.19% | Change In Mass (%) - ref, Sorption [3, 7]: 0.23% | Change In Mass (%) - ref, Desorption [3, 8]: 10.50% | Change In Mass (%) - ref, Hysteresis [3, 8]: 10.20% | Change In Mass (%) - ref, Sorption [3, 8]: 0.30% | Change In Mass (%) - ref, Desorption [3, 9]: 10.58% | Change In Mass (%) - ref, Hysteresis [3, 9]: 10.16% | Change In Mass (%) - ref, Sorption [3, 9]: 0.41% | Change In Mass (%) - ref, Desorption [3, 10]: 10.66% | Change In Mass (%) - ref, Hysteresis [3, 10]: 10.10% | Change In Mass (%) - ref, Sorption [3, 10]: 0.55% | Change In Mass (%) - ref, Desorption [3, 11]: 10.74% | Change In Mass (%) - ref, Hysteresis [3, 11]: 9.91% | Change In Mass (%) - ref, Sorption [3, 11]: 0.83% | Change In Mass (%) - ref, Desorption [3, 12]: 10.83% | Change In Mass (%) - ref, Hysteresis [3, 12]: 9.65% | Change In Mass (%) - ref, Sorption [3, 12]: 1.18% | Change In Mass (%) - ref, Desorption [3, 13]: 10.97% | Change In Mass (%) - ref, Hysteresis [3, 13]: 9.22% | Change In Mass (%) - ref, Sorption [3, 13]: 1.75% | Change In Mass (%) - ref, Desorption [3, 14]: 11.15% | Change In Mass (%) - ref, Hysteresis [3, 14]: 8.85% | Change In Mass (%) - ref, Sorption [3, 14]: 2.31% | Change In Mass (%) - ref, Desorption [3, 15]: 11.35% | Change In Mass (%) - ref, Hysteresis [3, 15]: 8.46% | Change In Mass (%) - ref, Sorption [3, 15]: 2.89% | Change In Mass (%) - ref, Desorption [3, 16]: 11.59% | Change In Mass (%) - ref, Hysteresis [3, 16]: 8.05% | Change In Mass (%) - ref, Sorption [3, 16]: 3.54% | Change In Mass (%) - ref, Desorption [3, 17]: 11.95% | Change In Mass (%) - ref, Hysteresis [3, 17]: 7.67% | Change In Mass (%) - ref, Sorption [3, 17]: 4.27% | Change In Mass (%) - ref, Desorption [3, 18]: 12.47% | Change In Mass (%) - ref, Hysteresis [3, 18]: 7.53% | Change In Mass (%) - ref, Sorption [3, 18]: 4.94% | Change In Mass (%) - ref, Desorption [3, 19]: 13.23% | Change In Mass (%) - ref, Hysteresis [3, 19]: 7.02% | Change In Mass (%) - ref, Sorption [3, 19]: 6.21% | Change In Mass (%) - ref, Desorption [3, 20]: 14.44% | Change In Mass (%) - ref, Hysteresis [3, 20]: 5.71% | Change In Mass (%) - ref, Sorption [3, 20]: 8.73% | Change In Mass (%) - ref, Desorption [3, 21]: 16.99% | Change In Mass (%) - ref, Hysteresis [3, 21]: 4.90% | Change In Mass (%) - ref, Sorption [3, 21]: 12.09% | Change In Mass (%) - ref, Desorption [3, 22]: 21.36% | Change In Mass (%) - ref, Hysteresis [3, 22]: 4.66% | Change In Mass (%) - ref, Sorption [3, 22]: 16.70% | Change In Mass (%) - ref, Desorption [3, 23]: 23.33% | Change In Mass (%) - ref, Sorption [3, 23]: 23.33% | appearance of sample after DVS testing [3]: thick gel | appearance of sample after DVS testing ([3]; listed as dapagliflozin Form I): thick gel-like material | hygroscopicity classification ([3]; based on DVS weight gain from 0 to 95% RH): very hygroscopic
SMILES: CCOc1ccc(Cc2cc([C@@H]3O[C@H](CO)[C@@H](O)[C@H](O)[C@H]3O)ccc2Cl)cc1 [Form I, (2S,3R,4R,5S,6R)-2-[4-chloro-3-(4-ethoxybenzyl)phenyl]-6-(hydroxymethyl)tetrahydro-2H-pyran-3,4,5-triol, reference compound]
form transformation after DVS test (XRPD) [1]: an amorphous form (not containing the 32 deg peak) was detected | form transformation after DVS test (XRPD) ([1]; listed as dapagliflozin Form I): the amorphous was found after testing DVS
